Values of other authors as cited in PubChem BioAssay AID1259410 (Chemical Carcinogenesis Research Information System (CCRIS), 2018).

System: rodent tumor promotion studies, tumor incidence
Test: CCRIS tumor promotion studies

Structure (SMILES): O=C(O)c1cc(=O)[nH]c(=O)[nH]1
- outcome (Carcinogen: 1,2-DIMETHYLHYDRAZINE DIHYDROCHLORIDE, 306-37-6, Doses [Carcinogen]: 100 MG/KG ONCE 18 HR AFTER 2/3 PARTIAL HEPATECTOMY, Doses [Promoter]: 0, 1% IN DIET FOR 10 WK BEGINNING 1 WK POST CARCINOGEN DOSE (STUDY DURATION: 54 WK), Route [Carcinogen]: INTRAPERITONEAL, Route [Promoter]: ORAL, Species: RAT, Strain/Sex: F344/MALE): liver: hepatocellular carcinoma
- outcome (Carcinogen: 1,2-DIMETHYLHYDRAZINE DIHYDROCHLORIDE, 306-37-6, Doses [Carcinogen]: 100 MG/KG ONCE 18 HR AFTER 2/3 PARTIAL HEPATECTOMY, Doses [Promoter]: 0, 1% IN DIET FOR 20 WK BEGINNING 1 WK POST CARCINOGEN DOSE (STUDY DURATION: 54 WK), Route [Carcinogen]: INTRAPERITONEAL, Route [Promoter]: ORAL, Species: RAT, Strain/Sex: F344/MALE): liver: hepatocellular carcinoma
- outcome (Carcinogen: 1,2-DIMETHYLHYDRAZINE DIHYDROCHLORIDE, 306-37-6, Doses [Carcinogen]: 100 MG/KG ONCE 18 HR AFTER 2/3 PARTIAL HEPATECTOMY, Doses [Promoter]: 0, 1% IN DIET FOR 29 WK BEGINNING 1 WK POST CARCINOGEN DOSE (STUDY DURATION: 54 WK), Route [Carcinogen]: INTRAPERITONEAL, Route [Promoter]: ORAL, Species: RAT, Strain/Sex: F344/MALE): liver: hepatocellular carcinoma
- outcome (Carcinogen: 1,2-DIMETHYLHYDRAZINE DIHYDROCHLORIDE, 306-37-6, Doses [Carcinogen]: 100 MG/KG ONCE 18 HR AFTER 2/3 PARTIAL HEPATECTOMY, Doses [Promoter]: 0, 1% IN DIET FOR 40 WK BEGINNING 1 WK POST CARCINOGEN DOSE (STUDY DURATION: 54 WK), Route [Carcinogen]: INTRAPERITONEAL, Route [Promoter]: ORAL, Species: RAT, Strain/Sex: F344/MALE): liver: hepatocellular carcinoma
- outcome (Carcinogen: 1,2-DIMETHYLHYDRAZINE DIHYDROCHLORIDE, Doses [Carcinogen]: 100 MG/KG ONCE, 18 HR AFTER PARTIAL HEPATECTOMY, Doses [Promoter]: 1% IN DIET FOR 10 OR 13 MO BEGINNING 1 WK AFTER INITIATION, Route [Carcinogen]: INTRAPERITONEAL, Route [Promoter]: ORAL, Species: RAT, Strain/Sex: F344/MALE): liver: hepatocellular carcinoma
- outcome (Carcinogen: 1,2-DIMETHYLHYDRAZINE, 540-73-8, Doses [Carcinogen]: 100 MG/KG ONCE 18 HR AFTER TWO-THIRDS PARTIAL HEPATECTOMY, Doses [Promoter]: 0, 1% IN DIET BEGINNING 1 WK POST CARCINOGEN DOSE (STUDY DURATION: 54 WK), Route [Carcinogen]: INTRAPERITONEAL, Route [Promoter]: ORAL, Species: RAT, Strain/Sex: F344/MALE): liver: hepatocellular carcinoma
- outcome (Carcinogen: DIETHYLNITROSAMINE, 55-18-5, Doses [Carcinogen]: 200 MG/KG BW ONCE, Doses [Promoter]: 0, 1% IN DIET FOR 4 WK BEGINNING 1 WK POST CARCINOGEN DOSE, PARTIAL HEPATECTOMY PERFORMED AT END OF SECOND WK (STUDY DUR, Route [Carcinogen]: INTRAPERITONEAL, Route [Promoter]: ORAL, Species: RAT, Strain/Sex: F344/MALE): liver: carcinoma
- outcome (Carcinogen: DIETHYLNITROSAMINE, 55-18-5, Doses [Carcinogen]: 200 MG/KG ONCE, Doses [Promoter]: 0, 1% IN DIET BEGINNING 1 WK POST CARCINOGEN DOSE (STUDY DURATION: 60 WK), Route [Carcinogen]: INTRAPERITONEAL, Route [Promoter]: ORAL, Species: RAT, Strain/Sex: F344/MALE): liver: hepatocellular carcinoma
- outcome (Carcinogen: DIETHYLNITROSAMINE, 55-18-5, Doses [Carcinogen]: 200 MG/KG ONCE, Doses [Promoter]: 0, 1% IN DIET BEGINNING 5 WK POST CARCINOGEN DOSE (STUDY DURATION: 60 WK), Route [Carcinogen]: INTRAPERITONEAL, Route [Promoter]: ORAL, Species: RAT, Strain/Sex: F344/MALE): liver: hepatocellular carcinoma
- outcome (Carcinogen: N-NITROSO(2-HYDROXYPROPYL)(2-OXOPROPYL)AMINE, 61499-28-3, Doses [Carcinogen]: 170 MG/KG (TOTAL DOSE) ADMINISTERED CONTINUOUSLY OVER 9 D VIA OSMOTIC PUMP, Doses [Promoter]: 0, 1% IN DIET BEGINNING 2 WK POST CARCINOGEN TREATMENT AND CONTINUING FOR DURATION OF STUDY (STUDY DURATION: 29 WK), Route [Carcinogen]: SUBCUTANEOUS IMPLANT, Route [Promoter]: ORAL, Species: HAMSTER, Strain/Sex: SYRIAN/FEMALE): pancreas: papillary adenocarcinoma, carcinoma in situ
- outcome (Carcinogen: N-NITROSO(2-HYDROXYPROPYL)(2-OXOPROPYL)AMINE, 61499-28-3, Doses [Carcinogen]: 170 MG/KG (TOTAL DOSE) INFUSED CONTINUOUSLY FOR 9 D, Doses [Promoter]: 0, 1% IN DIET FOR DURATION OF STUDY BEGINNING 2 WK POST CARCINOGEN TREATMENT (STUDY DURATION: 28 WK), Route [Carcinogen]: SUBCUTANEOUS, Route [Promoter]: ORAL, Species: HAMSTER, Strain/Sex: SYRIAN/FEMALE): pancreas: carcinoma in situ, adenocarcinoma
- outcome (Carcinogen: N-NITROSO(2-HYDROXYPROPYL)(2-OXOPROPYL)AMINE, 61499-28-3, Doses [Carcinogen]: 400 MG/KG (TOTAL DOSE) ADMINISTERED CONTINUOUSLY BY OSMOTIC PUMP FOR 14 D, Doses [Promoter]: 0, 1% IN DIET FOR 15 WK BEGINNING 2 WK PRIOR TO CARCINOGEN TREATMENT (STUDY DURATION: 29 WK), Route [Carcinogen]: SUBCUTANEOUS, Route [Promoter]: ORAL, Species: RAT, Strain/Sex: SPRAGUE-DAWLEY/MALE): kidney: tumor; lung: adenoma
- outcome (Carcinogen: N-NITROSO(2-HYDROXYPROPYL)(2-OXOPROPYL)AMINE, 61499-28-3, Doses [Carcinogen]: 400 MG/KG VIA OSMOTIC PUMP CONTINUOUSLY FOR 14 D, Doses [Promoter]: 0, 1% IN DIET 2 WK PRIOR TO AND 13 WK POST CARCINOGEN TREATMENT (STUDY DURATION: 27 WK), Route [Carcinogen]: SUBCUTANEOUS, Route [Promoter]: ORAL, Species: RAT, Strain/Sex: CD-1/MALE): kidney: tumor; lung: adenoma

Structure (SMILES): CC(C)C[C@H]1C(=O)N2CCC[C@H]2[C@]2(O)O[C@](NC(=O)[C@@H]3C=C4c5cccc6[nH]c(Br)c(c56)C[C@H]4N(C)C3)(C(C)C)C(=O)N12
- outcome (Carcinogen: 3-METHYLCHOLANTHRENE, 56-49-5, Doses [Carcinogen]: 1.5 MG IN TRICAPRYLIN ONCE, Doses [Promoter]: 0, 3 MG/KG/D IN 50% ETHANOL FOR 16 CONSECUTIVE DAYS BEGINNING 2 D PRIOR TO CARCINOGEN DOSE AND AGAIN FOR 14 D BEGINNING, Route [Carcinogen]: SUBCUTANEOUS, Route [Promoter]: SUBCUTANEOUS, Species: RAT, Strain/Sex: SPRAGUE-DAWLEY/MALE): injection site: tumor
- outcome (Carcinogen: N-METHYL-N'-NITRO-N-NITROSOGUANIDINE, 70-25-7, Doses [Carcinogen]: 40 ML OF A 50 UG/ML DEIONIZED WATER SOLUTION 1/2 D FOR 25 WK (AVERAGE TOTAL DOSE 170 MG), Doses [Promoter]: 0, 1, 2, MG/KG IN 0.1 ML/KG OLIVE OIL 1/2 D FOR 25 WK ADMINISTERED POST CARCINOGEN (STUDY DURATION: 52 WK), Doses [Promoter]: 0, 1, 2, MG/KG IN 0.1 ML/KG OLIVE OIL 1/2 D FOR 25 WK ADMINISTERED POST CARCINOGEN (STUDY DURATION: 52 WK), Route [Carcinogen]: ORAL, Route [Promoter]: SUBCUTANEOUS, Species: RAT, Strain/Sex: WISTAR/MALE): glandular stomach: adenocarcinoma

Structure (SMILES): O=c1[nH]cnc2[nH]ncc12
- outcome (Carcinogen: N-(4-(5-NITRO-2-FURYL)-2-THIAZOLYL)FORMAMIDE, Doses [Carcinogen]: DIET, Doses [Promoter]: IN DIET, Route [Carcinogen]: ORAL, Route [Promoter]: ORAL, Species: RAT, Strain/Sex: FEMALE): urinary bladder

Structure (SMILES): Cc1nccc2c1[nH]c1ccccc12
- outcome (Carcinogen: N-ETHYL-N-HYDROXYETHYLNITROSAMINE, 13147-25-6, Doses [Carcinogen]: 0.1% IN DRINKING WATER FOR 2 WK, Doses [Promoter]: 0, 1000 PPM IN DIET BEGINNING 1 WK POST CARCINOGEN TREATMENT AND CONTINUING FOR 23 WK (STUDY DURATION: 26 WK), Route [Carcinogen]: ORAL, Route [Promoter]: ORAL, Species: RAT, Strain/Sex: F344/MALE): kidney: adenoma
